Reference: patent US20230365652A1, “Nucleic Acid Constructs, Viral Vectors and Viral Particles” (priority 2020, published 2023)

Molecular target: T1, GAT-1 (Homo sapiens, UniProt P30531)
T1 construct: expressed in transfected cells; host or cells: SH-SY5Y (human neuroblastoma cell line), transient transfection with Lipofectamine 3000
Experiment: Tritiated [3H]GABA uptake assay in transfected SH-SY5Y cells
Assay type: cell-based
Conditions: CI-966 100 μM in 0.8% DMSO, 10 min at 37° C.
From the text: SH-SY5Y cells (human neuroblastoma cell line) were transfected with the constructs as described in Example 1 using Lipofectamine 3000 and following manufacturer instructions. The positive control consisted of a plasmid encoding hSLC6A1 under the control of a CAG promoter expressed together with a tagRFP fluorescent protein whilst as negative control (and a matching plasmid lacking the hSLC6A1 sequence. At 2 days post transfection, SH-SY5Y cells were attested for either ICC analysis of GABA uptake assay. Briefly, ICC analysis was performed as follow: cells were fixed with 4% paraformaldehyde and stained with the primary antibodies rabbit monoclonal anti-GAT-1 (Ref: ab177483; Abcam™, Cambridge, MA, USA) at 1:250. Cells were then stained with goat anti-rabbit secondary antibodies conjugated to Alexa Fluor 488 at 1:1,000 prior to imaging. For the GABA uptake assay, cells were previously seeded on scintillating microplates. […] Cells were then treated with a mixture of tritiated and cold GABA ([3H]GABA 8 μCi/ml and 15 μM GABA final concentrations) for 10 min at 37° C. and the reaction was stopped using 1 mM cold GABA before quantification of the radioactivity with a Microbeta instrument (Perkin Elmer).

T1 sequence (P30531 whole entry): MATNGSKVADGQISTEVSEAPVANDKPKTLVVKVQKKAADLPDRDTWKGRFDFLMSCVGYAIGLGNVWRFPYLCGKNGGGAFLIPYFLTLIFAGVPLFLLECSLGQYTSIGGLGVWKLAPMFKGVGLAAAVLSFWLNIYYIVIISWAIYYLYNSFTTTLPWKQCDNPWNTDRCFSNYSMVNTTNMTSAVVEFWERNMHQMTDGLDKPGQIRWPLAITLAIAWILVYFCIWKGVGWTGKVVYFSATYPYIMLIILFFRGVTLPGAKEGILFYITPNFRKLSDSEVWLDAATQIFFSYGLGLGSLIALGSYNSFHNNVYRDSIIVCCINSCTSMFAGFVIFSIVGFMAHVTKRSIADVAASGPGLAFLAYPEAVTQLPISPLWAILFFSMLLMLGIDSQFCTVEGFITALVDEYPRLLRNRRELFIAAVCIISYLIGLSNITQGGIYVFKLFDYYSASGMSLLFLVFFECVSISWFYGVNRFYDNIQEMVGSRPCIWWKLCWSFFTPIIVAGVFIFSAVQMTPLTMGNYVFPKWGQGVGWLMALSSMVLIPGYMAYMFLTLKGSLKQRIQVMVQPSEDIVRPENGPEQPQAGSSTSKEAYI

Structure (SMILES): O=C(O)C1=CCCN(CCOC(c2ccc(C(F)(F)F)cc2)c2ccc(C(F)(F)F)cc2)C1 [GAT-1 inhibitor]
- uptake of [3H]GABA when cells treated with inhibitor: inhibited
